Our source for the IC50 and logD values is paper PMC9783573, “Introduction of a SiFA Moiety into the D-Glutamate Chain of DOTA-PP-F11N Results in Radiohybrid-Based CCK-2R-Targeted Compounds with Improved Pharmacokinetics In Vivo” (Pharmaceuticals, 2022).

Series [1] has as its target T1, CCK-2R (Rattus norvegicus, UniProt P30553).
T1 construct: CCK-2R expressing rat pancreatic cancer cells AR42J (CLS GmbH, Eppelheim,; host or cells: AR42J rat pancreatic cancer cells
T1 sequence (P30553 1-452): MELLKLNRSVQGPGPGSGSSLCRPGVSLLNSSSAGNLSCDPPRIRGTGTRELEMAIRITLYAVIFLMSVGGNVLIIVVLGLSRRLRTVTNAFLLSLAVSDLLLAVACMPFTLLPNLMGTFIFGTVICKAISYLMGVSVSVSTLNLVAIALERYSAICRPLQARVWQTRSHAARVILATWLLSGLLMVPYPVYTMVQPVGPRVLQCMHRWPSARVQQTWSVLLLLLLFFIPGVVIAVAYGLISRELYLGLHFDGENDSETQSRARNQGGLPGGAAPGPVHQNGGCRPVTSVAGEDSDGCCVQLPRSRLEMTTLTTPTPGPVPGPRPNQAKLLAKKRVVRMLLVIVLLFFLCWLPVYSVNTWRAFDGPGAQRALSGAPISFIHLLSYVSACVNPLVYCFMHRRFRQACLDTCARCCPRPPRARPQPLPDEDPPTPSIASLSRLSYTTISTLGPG
Briefly: Competitive binding (IC50) on AR42J cells with [177Lu]Lu-DOTA-PP-F11N as radiolabelled reference. To be noted: natLu-labelled peptide; AR42J cells 2.0 × 10^5/well, 3 h, 37 °C, [177Lu]Lu-DOTA-PP-F11N 0.3 pmol/well. The method, then:
Detailed description of all cell-based experiments is provided in the Supplementary Materials. In brief, competitive binding studies were conducted on AR42J cells (2.0 × 10^5 cells per 1 mL/well) via incubation at 37 °C for 3 h using [^177Lu]Lu-DOTA-PP-F11N (0.3 pmol) as a radiolabelled reference (n = 3).
Cell Culture. CCK-2R expressing rat pancreatic cancer cells AR42J (CLS GmbH, Eppelheim, Germany) were cultivated in monolayers in CELLSTAR ® cell culture flasks acquired from Greiner Bio-One GmbH (Frickenhausen, Germany) at 37 °C in a humidified atmosphere (5% CO2) using a HERAcell 150i-Incubator (Thermo Fisher Scientific Inc., Waltham, United States). As nutrient medium RPMI 1640 medium, supplemented with 5 mM L-Gln 5 mL non-essential amino acids (100×) and 10% FCS, was used. Furthermore, a Dulbecco’s PBS solution with 0.1% EDTA (v/v) was applied to detach the cells for cell passaging. The detached cells were counted using a Neubauer hemocytometer ( Paul Marienfeld, Lauda-Königshofen, Germany). In addition, all operations under sterile conditions were accomplished using a MSC-Advantage safety workbench (Thermo Fisher Scientific Inc., Waltham, United States).
Determination of IC50. AR42J cells (2.0 × 10^5 cells/well) were seeded into 24-well plates 24 ± 2 h prior to testing, using 1 mL of nutrient medium (RPMI 1640, 5 mM L-Gln, 5 mL non-essential amino acids (100×), 10% FCS). Cells were incubated at 37 °C in a humidified atmosphere (5% CO2).
After removal of the medium, each well was washed with 500 μL PBS. For the cell-based assay, 200 μL of nutrient medium (+5% BSA), [177Lu]Lu-DOTA-PP-F11N (25 μL, 0.3 pmol) as a radiolabeled reference and 25 μL of the peptide of interest in increasing concentrations (10−10 to 10−4 M) in triplicate were added to the cells. Thereafter, the assay was incubated for 3 h at 37 °C and thereafter, the supernatant was collected. The cells were washed with 300 μL PBS and the collected supernatant fractions were unified.
After lysis of the cells with NaOH (300 μL, 1 N) for 15 min, the respective wells were washed with NaOH (300 μL, 1 N) and both fractions were unified. The radioactivity of both, the supernatant and the lysed fractions was quantified using a γ-counter (PerkinElmer Inc., Waltham, United States ). The obtained data were evaluated via the GraphPad PRISM software ( GraphPad Software Inc., La Jolla, United States), which calculates the halfmaximal inhibitory concentration ( IC50) of the peptides. […]

Series [2] in a line: Lipophilicity, n-octanol/PBS (pH 7.4) distribution coefficient. Type of series: physicochemical. The method, then:
Lipophilicity (depicted as octanol-phosphate-buffered saline solution (PBS, pH = 7.4) distribution coefficient, logD7.4) was determined via dissolving the ^177Lu-labelled peptide (approx. 1 MBq) in a mixture (1/1, v/v) of n-octanol and PBS. The suspension was vortexed in a reaction vial (1.5 mL) for 3 min at RT and the vial was centrifuged at 9000× […] for 5 min (Biofuge 15, Heraus Sepatech GmbH, Osterode, Germany). 200 μL aliquots of both layers were measured separately in a γ-counter (Perkin Elmer, Waltham, MA, USA). The experiment was repeated at least five times.

The mark [3] stands for this setting: 177Lu-labelled peptide, n-octanol/PBS pH 7.4, read-out: logD7.4.

Where two headings read alike, the source gives them in different places. Starred links: 1 amine or outer side, 2 acyl side, 3 side chain; linkers in the order of their positions; H or OH if unused. Non-standard residues stand in square brackets, D forms with d. Residues, ends and D or L forms follow the SMILES beside them. *: point of attachment. X1 = O=C(O)CN1CCN(CC(=O)O)CCN([C@H](CCC(=O)*)C(=O)O)CCN(CC(=O)O)CC1; Benzoyl(4-SiFtBu2) = CC(C)(C)[Si](F)(c1ccc(C(=O)*)cc1)C(C)(C)C; DOTA = O=C(O)CN1CCN(CC(=O)O)CCN(CC(=O)*)CCN(CC(=O)O)CC1; d(γGlu) = O=C(O)[C@@H](CCC(=O)[*:2])N[*:1]; Nle = CCCC[C@H](N)C(=O)O; dDap = NC[C@@H](N)C(=O)O

Molecule `CCCC[C@H](NC(=O)[C@H](Cc1c[nH]c2ccccc12)NC(=O)CNC(=O)[C@H](Cc1ccc(O)cc1)NC(=O)[C@H](C)NC(=O)[C@@H](CCC(=O)O)NC(=O)[C@@H](CCC(=O)O)NC(=O)[C@@H](CNC(=O)c1ccc([Si](F)(C(C)(C)C)C(C)(C)C)cc1)NC(=O)[C@@H](CCC(=O)O)NC(=O)[C@@H](CCC(=O)O)NC(=O)[C@@H](CCC(=O)O)NC(=O)[C@@H](CCC(=O)O)NC(=O)CC[C@H](C(=O)O)N1CCN(CC(=O)O)CCN(CC(=O)O)CCN(CC(=O)O)CC1)C(=O)N[C@@H](CC(=O)O)C(=O)N[C@@H](Cc1ccccc1)C(N)=O` [[nat/177Lu]Lu-(R)-DOTAGA-rhCCK-3, metal not drawn] (X1-[dE][dE][dE][dE][dDap](Benzoyl(4-SiFtBu2))[dE][dE]AYGW[Nle]DF-NH2) came in with an IC50 in series [1] of 156 ± 4 nM. For the same molecule, the logD in series [2] (setting [3]) was -2.03 ± 0.1.

`CCCC[C@H](NC(=O)[C@H](Cc1c[nH]c2ccccc12)NC(=O)CNC(=O)[C@H](Cc1ccc(O)cc1)NC(=O)[C@H](C)NC(=O)CC[C@@H](NC(=O)CC[C@@H](NC(=O)CC[C@@H](NC(=O)CC[C@@H](NC(=O)[C@@H](CNC(=O)c1ccc([Si](F)(C(C)(C)C)C(C)(C)C)cc1)NC(=O)CC[C@@H](NC(=O)CC[C@@H](NC(=O)CC[C@H](C(=O)O)N1CCN(CC(=O)O)CCN(CC(=O)O)CCN(CC(=O)O)CC1)C(=O)O)C(=O)O)C(=O)O)C(=O)O)C(=O)O)C(=O)O)C(=O)N[C@@H](CC(=O)O)C(=O)N[C@@H](Cc1ccccc1)C(N)=O` [[nat/177Lu]Lu-(R)-DOTAGA-rhCCK-14, metal not drawn] ({X1-d(γGlu)-d(γGlu)}-[dDap](Benzoyl(4-SiFtBu2))[d(γGlu)][d(γGlu)][d(γGlu)][d(γGlu)]AYGW[Nle]DF-NH2): the logD in series [2] (setting [3]) is -2.26 ± 0.05.

In the case of `CCCC[C@H](NC(=O)[C@H](Cc1c[nH]c2ccccc12)NC(=O)CNC(=O)[C@H](Cc1ccc(O)cc1)NC(=O)[C@H](C)NC(=O)CC[C@@H](NC(=O)CC[C@@H](NC(=O)CC[C@@H](NC(=O)CC[C@@H](NC(=O)CC[C@@H](NC(=O)[C@@H](CNC(=O)c1ccc([Si](F)(C(C)(C)C)C(C)(C)C)cc1)NC(=O)CC[C@@H](NC(=O)CC[C@H](C(=O)O)N1CCN(CC(=O)O)CCN(CC(=O)O)CCN(CC(=O)O)CC1)C(=O)O)C(=O)O)C(=O)O)C(=O)O)C(=O)O)C(=O)O)C(=O)N[C@@H](CC(=O)O)C(=O)N[C@@H](Cc1ccccc1)C(N)=O` [[nat/177Lu]Lu-(R)-DOTAGA-rhCCK-15, metal not drawn] ({X1-d(γGlu)}-[dDap](Benzoyl(4-SiFtBu2))[d(γGlu)][d(γGlu)][d(γGlu)][d(γGlu)][d(γGlu)]AYGW[Nle]DF-NH2), the logD in series [2] (setting [3]) is -2.5 ± 0.02.

For the molecule `CCCC[C@H](NC(=O)[C@H](Cc1c[nH]c2ccccc12)NC(=O)CNC(=O)[C@H](Cc1ccc(O)cc1)NC(=O)[C@H](C)NC(=O)CC[C@@H](NC(=O)CC[C@@H](NC(=O)CC[C@@H](NC(=O)CC[C@@H](NC(=O)CC[C@@H](NC(=O)CC[C@@H](NC(=O)CC[C@@H](NC(=O)[C@@H](CNC(=O)c1ccc([Si](F)(C(C)(C)C)C(C)(C)C)cc1)NC(=O)CC[C@H](C(=O)O)N1CCN(CC(=O)O)CCN(CC(=O)O)CCN(CC(=O)O)CC1)C(=O)O)C(=O)O)C(=O)O)C(=O)O)C(=O)O)C(=O)O)C(=O)O)C(=O)N[C@@H](CC(=O)O)C(=O)N[C@@H](Cc1ccccc1)C(N)=O` [[nat/177Lu]Lu-(R)-DOTAGA-rhCCK-17, metal not drawn], the logD in series [2] (setting [3]) is -2.1 ± 0.06.

`CCCC[C@H](NC(=O)[C@H](Cc1c[nH]c2ccccc12)NC(=O)CNC(=O)[C@H](Cc1ccc(O)cc1)NC(=O)[C@H](C)NC(=O)CC[C@@H](NC(=O)CC[C@@H](NC(=O)CC[C@@H](NC(=O)CC[C@@H](NC(=O)CC[C@@H](NC(=O)CC[C@@H](NC(=O)CC[C@@H](NC(=O)CC[C@@H](NC(=O)[C@@H](CNC(=O)c1ccc([Si](F)(C(C)(C)C)C(C)(C)C)cc1)NC(=O)CC[C@H](C(=O)O)N1CCN(CC(=O)O)CCN(CC(=O)O)CCN(CC(=O)O)CC1)C(=O)O)C(=O)O)C(=O)O)C(=O)O)C(=O)O)C(=O)O)C(=O)O)C(=O)O)C(=O)N[C@@H](CC(=O)O)C(=O)N[C@@H](Cc1ccccc1)C(N)=O` [[nat/177Lu]Lu-(R)-DOTAGA-rhCCK-18, metal not drawn]: the logD in series [2] (setting [3]) was -2.16 ± 0.09.

The molecule `CCCC[C@H](NC(=O)[C@H](Cc1c[nH]c2ccccc12)NC(=O)CNC(=O)[C@H](Cc1ccc(O)cc1)NC(=O)[C@H](C)NC(=O)CC[C@@H](NC(=O)CC[C@@H](NC(=O)CC[C@@H](NC(=O)CC[C@@H](NC(=O)CC[C@@H](NC(=O)CC[C@@H](NC(=O)CN1CCN(CC(=O)O)CCN(CC(=O)O)CCN(CC(=O)O)CC1)C(=O)O)C(=O)O)C(=O)O)C(=O)O)C(=O)O)C(=O)O)C(=O)N[C@@H](CC(=O)O)C(=O)N[C@@H](Cc1ccccc1)C(N)=O` [[nat/177Lu]Lu-DOTA-PP-γ-F11N, metal not drawn] ({DOTA-d(γGlu)-d(γGlu)-d(γGlu)-d(γGlu)-d(γGlu)-d(γGlu)}-AYGW[Nle]DF-NH2) displayed a logD in series [2] (pH 7.4) of -4.38 ± 0.05.

`CSCC[C@H](NC(=O)[C@H](Cc1c[nH]c2ccccc12)NC(=O)CNC(=O)[C@H](Cc1ccc(O)cc1)NC(=O)[C@H](C)NC(=O)CC[C@@H](NC(=O)CC[C@@H](NC(=O)CC[C@@H](NC(=O)CC[C@@H](NC(=O)CC[C@@H](NC(=O)CC[C@@H](NC(=O)CN1CCN(CC(=O)O)CCN(CC(=O)O)CCN(CC(=O)O)CC1)C(=O)O)C(=O)O)C(=O)O)C(=O)O)C(=O)O)C(=O)O)C(=O)N[C@@H](CC(=O)O)C(=O)N[C@@H](Cc1ccccc1)C(N)=O` [[nat/177Lu]Lu-γ-CP04, metal not drawn] yielded a logD in series [2] (pH 7.4) of -4.3 ± 0.08.
